From patent publication US11673866B2, “Estrogen receptor beta ligands for the prevention and treatment of multiple sclerosis (MS) and other demyelinating, inflammatory and neurodegenerative diseases” (The Board of Trustees of the University of Illinois, priority 2018, dated 2023)
“Also recorded” adds a separate entry of the source.

Experiments:
[1] = test system: primary oligodendrocyte and oligodendrocyte precursor cells (OL/OPCs); assay: Primary OPC culture differentiation (MBP immunostaining, DAPI); type: cell-based, mouse; conditions: for number of MBP+ OLs (differentiated OLs) / branched OLs / complex branching cells: 10 nM, vs vehicle-treated cells; for number of MBP+ OLs (differentiated OLs): 3 days in differentiating media
Experimental: Primary OPC Cultures: Primary OPCs, isolated from postnatal day P1 C57BL/6 male and female mouse cortices as described previously, were treated with 10 nM ligands in differentiating medium for 3 days (Tiwari-Woodruff et al., 2001; Tiwari-Woodruff et al., 2006). Primary OPC were cultured into 8-well chamber slides (three wells per condition, 2.5×10^5 cells/well) for three days to attach and […] in differentiating media (consisting of DMEM-F12 with triiodothyronine- and thyroxine-containing Sato as well as penicillin, streptomycin, insulin, N-acetyl-L-cysteine, forskolin, ciliary neurotrophic factor, neurotrophin-3, and platelet-derived growth factor receptor α (Tiwari-Woodruff et al., 2001)). A positive control (IndCl), a negative control (Vehicle consisting of the media+EtOH mixture used to dissolve IndCl), and a normal control (differentiating media alone) were used for comparison. At the end of the treatment period, cells were fixed, stained by immunocytochemistry (primary antibody polyclonal chicken myelin basic protein (MBP, Millipore AB9348), shown in green and co-stained with nuclear stain—DAPI shown in blue), and imaged with an Olympus BX61 confocal microscope (Olympus America Inc., Center Valley, Pa.) at 10× magnification (3 images per well). Cells were counted using the ImageJ multipoint tool, and counts were then divided by the image area (mm^2). Average cell density for each condition was then divided by the normal condition cell density. Analysis of OL differentiation consisted of counting the number of MBP+ cells and process extensions that were longer than the respective cell-body diameter and tracking the number of highly branched MBP+ cells (with three or more processes) (Monnerie et al., 2017). Statistics were performed using GraphPad Prism 6 Software (La Jolla, Calif.). One-way ANOVA with Tukey's posthoc test for multiple comparisons was used to generate p-values, and data are presented as mean SEM (with α≤0.05).
Primary OPC cultures were used as a convenient cell-based assay to characterize the proliferation and/or differentiation effects of the new IndCl analogues and to select those most suitable for more extensive studies to be done in comparison with the parental ligand, IndCl. 48 hours after plating OPCs, one of seven IndCl analogues (FIG. 1A) was added to differentiating media at a concentration of 10 nM (De Angelis et al., 2005; Saijo et al., 2011). OPCs were allowed to differentiate for 3 days in the presence of IndCl or analogues, at which point they were fixed, immunostained for OPC/OL markers, and quantified. […] The total number of cells in culture was not altered by any treatment (FIGS. 1B and 1D).

ERβ = ERβ (Homo sapiens, UniProt Q92731); assay: Relative binding affinity (RBA) to estrogen receptor beta, radiometric measurement; conditions: for β/α Ratio: ratio of RBA ERβ to RBA ERα; for RBA ERβ: relative value to 100% for E2 by radiometric measurement
Chain of ERβ (Q92731 whole entry, species assumed): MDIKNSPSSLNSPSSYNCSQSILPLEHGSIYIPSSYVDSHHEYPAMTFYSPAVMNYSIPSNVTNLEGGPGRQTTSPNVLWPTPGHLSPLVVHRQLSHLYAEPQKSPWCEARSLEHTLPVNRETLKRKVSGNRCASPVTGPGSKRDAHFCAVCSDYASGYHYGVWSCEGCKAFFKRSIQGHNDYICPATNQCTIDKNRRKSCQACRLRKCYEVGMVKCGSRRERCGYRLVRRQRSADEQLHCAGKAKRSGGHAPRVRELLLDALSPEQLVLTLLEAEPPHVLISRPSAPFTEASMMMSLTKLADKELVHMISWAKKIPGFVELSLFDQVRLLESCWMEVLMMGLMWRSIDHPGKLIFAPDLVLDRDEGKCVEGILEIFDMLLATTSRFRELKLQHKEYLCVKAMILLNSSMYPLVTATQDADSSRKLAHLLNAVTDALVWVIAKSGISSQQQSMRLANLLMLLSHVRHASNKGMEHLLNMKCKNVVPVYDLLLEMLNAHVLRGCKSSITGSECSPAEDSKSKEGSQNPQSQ

[2] = test system: corpus callosum mature OLs (CC1) and MBP; assay: CC1 mature OLs and MBP immunoreactivity in callosal white matter tracts of EAE mice; type: in vivo, mouse; set-up: key to Myelination: OLs / Myelination: MBP: ‘+’ indicate marker was significantly (p ≤ 0.05) increased in treatment group relative to vehicle; ‘−’ indicates marker was significantly (p ≤ 0.05) decreased in treatment group relative to vehicle; ○: ‘o’ indicate marker did not change relative to vehicle; conditions: vs vehicle; for CC1+ mature OL numbers, corpus callosum / MBP+ staining, corpus callosum: therapeutic treatment (postEAE)
From the text: Immunohistochemistry: Before histological staining, 40-μm free floating sections were thoroughly washed with PBS to remove residual sodium azide (Crawford et al., 2010). Sections were permeabilized with 0.3% Triton X-100 in ix PBS and 15% normal goat serum (NGS). Myelination, gliosis and immune markers were visualized by the following primary antibodies at a concentration of 1:500 unless otherwise noted: chicken anti-myelin basic protein (MBP; polyclonal, EMD Millipore, Darmstadt, Germany), chicken anti-glial fibrillary acidic protein (GFAP; EMD Millipore, Darmstadt), rat anti-cluster of differentiation 45 (CD45; clone 30-F11, BD Biosciences, San Diego, Calif.), mouse anti-ionized calcium-binding adapter molecule 1/allograft inflammatory factor-1 (Iba1/AIF1; clone 20A12.1, EMD Millipore, Darmstadt, Germany), goat anti-CXCL1 (R&D systems; Minneapolis, Minn.) at 1:250 and mouse anti-adenomatous polyposis coli (CC-1; clone CC-1, Genetex, Irvine, Calif.). Secondary staining was performed using polyclonal fluorophore-conjugated antibodies from ThermoFisher Scientific at a concentration of 1:500 unless otherwise specified: goat anti-chicken Alexa Fluor® 555 (AF555), goat anti-rabbit Alexa Fluor® 647 (AF647), donkey anti-chicken IgY Cy3 (EMD Millipore), goat anti-rat IgG AF647, goat anti-rabbit IgG Cy3 (EMD Millipore), goat anti-mouse IgG2b AF647 and rabbit anti-goat AF647. Nuclei were counter stained with 4′,6-Diamidino-2-phenylindole (DAPI, 2 ng/ml; Molecular Probes) for 10 minutes after incubation with secondary antibodies, and sections were mounted on glass slides, allowed to dry, and coverslipped with Fluoromount G mounting medium (Thermo Fisher Scientific) for imaging.
Confocal Microscopy: Thoracic spinal cord dorsal and ventral column sections, as well as CC were imaged using an Olympus BX61 confocal microscope (Olympus America Inc., Center Valley, Pa.) using a 10× and 40× objective. Z-stack projections were compiled using SlideBook 6 software (Intelligent Imaging Innovations, Inc., Denver, Colo.). Immunostaining was quantified using unbiased stereology (Crawford et al., 2010). All images (RGB) were Confocal converted to grayscale, split, and separated by color channel using imageJ version 2.2.0-rc-46/1.50 g (NIH). To avoid experimenter bias, auto-adjustment of brightness and contrast, as well as threshold of staining signal, was carried out by ImageJ. MBP^+, GFAP^+, CD45^+, Iba1^+, CC1^+, and CXCL1^+, staining intensity was measured as percent area of positive immunoreactivity within the region of interest and intensity of signal determined by ImageJ.
To test whether IndCl analogues promote similar gains in mature OL numbers and myelination, callosal white matter tracts were assessed for adenomatous polyposis coli (CC1) and MBP immunoreactivity, respectively. Additionally, ultrastructural analysis of the CC was performed by EM imaging to confirm the integrity of axon myelination.

[3] = Post (therapeutic, postEAE) treatment of EAE mice
[4] = Pre (prophylactic, preEAE) E2 treatment of EAE mice

β/α Ratio (ERβ) | RBA ERβ (ERβ) [%] | Structure (SMILES) | number of MBP+ OLs (differentiated OLs) [1] | branched OLs / complex branching cells [1] | Myelination: MBP [2, 3] | Myelination: OLs [2, 3] | CC1+ mature OL numbers, corpus callosum [2] | MBP+ staining, corpus callosum [2] | Myelination: MBP [2, 4] | Myelination: OLs [2, 4] | MBP+/DAPI ratio (OPC differentiation) ([1]; FIG. 10B)
27.1 | 10.9 | Oc1ccc(-n2nc3ccc(O)cc3c2Cl)c(Cl)c1 [IndCl-o-Cl, 3-chloro-2-(2-chloro-4-hydroxyphenyl)-2H-indazol-5-ol] | significant increase; also recorded: significantly increased | increase in the percentage of branched OLs | + | + | significant increase | increased MBP+ staining | – | – | –
– | – | C[C@]12CC[C@@H]3c4ccc(O)cc4CC[C@H]3[C@@H]1CC[C@@H]2O [E2, 170 estradiol] | – | – | ○ | + | – | – | + | + | –
107 | 32.1 | Oc1ccc(-n2nc3ccc(O)cc3c2Cl)cc1 [IndCl, chloroindazole] | significantly increased | – | + | + | significant increase; also recorded: rescued the loss of CC1+ cells | increased MBP+ staining | – | – | –
48.9 | 21.1 | Cc1cc(O)ccc1-n1nc2ccc(O)cc2c1Cl [IndCl-o-Me, 3-chloro-2-(4-hydroxy-2-methylphenyl)-2H-indazol-5-ol] | significant increase; also recorded: significantly increased | increase in the percentage of branched OLs | + | + | significant increase | increased MBP+ staining | – | – | greatest increase
